{"source": "patent US8580805B2", "about": "“Pyrimidine carboxamide derivatives” (priority 2010, dated 2013)", "key": {"[1]": {"test_system": "adjuvant-induced arthritis in male Lewis rats", "test": "adjuvant-induced arthritis test in rats", "type": "in vivo, rat", "conditions": "change day 28 minus day 21; 30 mg/kg by intubation each day for seven days; vehicle result in parenthesis", "protocol": "As mentioned earlier, the compounds of formula (1) and pharmaceutically acceptable salts of compounds of formula (1) are useful in the treatment or prevention of inflammations and diseases where inflammation is the innate cause. For example, they can be used as anti-inflammatory agents in the treatment of inflammatory joint diseases, such as arthritis. To substantiate this assertion, representative compounds of formula (1) were tested for their inflammation-inhibiting properties in the adjuvant-induced arthritis test in rats as described in Int J Immunopharma, […], 12, 709-712.\nA quantity of 0.1 ml of a 0.5% (weight/volume) suspension of heat-killed and dried mycobacterium butyricum in heavy mineral oil, containing 0.2% digitonin, is injected into the base of the tail of male Lewis rats (120-140 g). The animals are housed individually and receive feed and water ad libitum. The thus-induced arthritis is allowed to develop without treatment during 21 days. On day 21 the body weight of each animal is determined. At the same time, the volumes of the two hind paws of each animal are measured by immersing the paws in an aqueous plethysmograph up to the height of the lateral malleolus. Thereupon, the animals are divided into groups, each group comprising six animals of approximately the same average volumes of the hind paws. One group is administered suspending vehicle. The other groups are administered the micronized test compound suspended in an aqueous suspending vehicle [0.9% NaCl (w/v) containing 0.5% carboxymethyl cellulose (w/v), 0.86% benzyl alcohol (v/v) and 0.39% Tween 80 (v/v)]. The test compound in aqueous suspending vehicle (or vehicle alone) is administered to the animals by intubation each day over a period of seven days. The effect of the test compounds is monitored daily by measurement of the hind paw volumes and body weights. At the end of the treatment period (day 28), body weights and volumes of the hind paws are again determined. The changes over the treatment period are calculated. The change in paw volume or body weight equals the paw volume or body weight on day 28 minus paw volume or body weight on day 21.\nThe results determined for representative compounds of formula (1) in the test described hereinbefore are set forth in the following Table I. Therein, the results for vehicle is in parenthesis following the results for each tested compound at a dose level of 30 mg/kg in each test."}, "[2]": {"test_system": "purified potato 5-lipoxygenase", "test": "LOX Inhibitor Screening Assay Kit (Cayman), colorimetric", "type": "biochemical", "conditions": "arachidonic acid as substrate", "protocol": "A representative compounds of formula (1a), was also tested for the effects on the activity of purified COX1, COX2, and LOX5 enzymes. In sharp contrast to the potent activity in the adjuvant-induced arthritis test in rats, the activity against the isolated arachidonic acid metabolizing enzymes was low. LOX5 activity was also measured colorimetrically by the hydroperoxides generated from the incubation of purified potato 5-lipoxygenase (Cayman Chemical Item Number 60401) in the LOX Inhibitor Screening Assay Kit (Cayman Chemical Item Number 760700) using arachidonic acid as substrate and following the protocol provided by Cayman Chemical. The test substance A inhibited the enzyme at 300, 100, 30 μM at 89, 69, and 46%, respectively."}, "[3]": {"biological_target": "T1, human recombinant COX-2 (Homo sapiens, UniProt P35354)", "T1 construct": "purchased Cayman Chemicals", "T1 sequence (P35354 18-604)": "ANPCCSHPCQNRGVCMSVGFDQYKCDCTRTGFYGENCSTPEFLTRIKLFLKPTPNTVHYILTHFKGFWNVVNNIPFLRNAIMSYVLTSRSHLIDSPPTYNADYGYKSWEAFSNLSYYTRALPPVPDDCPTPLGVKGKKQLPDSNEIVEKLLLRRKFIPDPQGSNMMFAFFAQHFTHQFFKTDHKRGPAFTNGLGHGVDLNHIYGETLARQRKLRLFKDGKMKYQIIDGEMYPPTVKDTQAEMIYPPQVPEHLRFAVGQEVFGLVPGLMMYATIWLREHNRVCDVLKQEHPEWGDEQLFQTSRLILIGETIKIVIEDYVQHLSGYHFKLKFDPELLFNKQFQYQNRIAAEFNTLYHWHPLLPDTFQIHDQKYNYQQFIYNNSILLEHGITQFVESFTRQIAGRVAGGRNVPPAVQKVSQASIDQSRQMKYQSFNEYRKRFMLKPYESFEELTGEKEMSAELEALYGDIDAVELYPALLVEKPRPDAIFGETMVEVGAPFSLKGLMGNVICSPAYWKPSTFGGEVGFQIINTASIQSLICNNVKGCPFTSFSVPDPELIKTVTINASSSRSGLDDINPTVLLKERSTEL", "test": "COX Activity Assay (Cayman), colorimetric, COX-2", "type": "biochemical", "conditions": "read-out: IC50 for COX2", "protocol": "(§1) A representative compounds of formula (1a), was also tested for the effects on the activity of purified COX1, COX2, and LOX5 enzymes. In sharp contrast to the potent activity in the adjuvant-induced arthritis test in rats, the activity against the isolated arachidonic acid metabolizing enzymes was low.\n(§2) COX activity was measured using an assay kit obtained from Cayman Chemicals in accord with the instruction manual of the manufacturer “COX Activity Assay, Catalog No. 760151, Colorimetric Assay for the Determination of COX Activity.” The enzyme activity was determined by the peroxidase activity of cyclooxygenases on arachidonic acid and monitored colorimetrically at 590 nm by the appearance of oxidized N,N,N′,N′-tetramethyl-p-phenylenediamine. Both ovine COX-1 and human recombinant COX-2 were obtained from Cayman Chemicals."}, "[4]": {"biological_target": "T2, ovine COX-1 (Ovis aries, UniProt P05979)", "T2 construct": "purchased Cayman Chemicals", "T2 sequence (P05979 25-600)": "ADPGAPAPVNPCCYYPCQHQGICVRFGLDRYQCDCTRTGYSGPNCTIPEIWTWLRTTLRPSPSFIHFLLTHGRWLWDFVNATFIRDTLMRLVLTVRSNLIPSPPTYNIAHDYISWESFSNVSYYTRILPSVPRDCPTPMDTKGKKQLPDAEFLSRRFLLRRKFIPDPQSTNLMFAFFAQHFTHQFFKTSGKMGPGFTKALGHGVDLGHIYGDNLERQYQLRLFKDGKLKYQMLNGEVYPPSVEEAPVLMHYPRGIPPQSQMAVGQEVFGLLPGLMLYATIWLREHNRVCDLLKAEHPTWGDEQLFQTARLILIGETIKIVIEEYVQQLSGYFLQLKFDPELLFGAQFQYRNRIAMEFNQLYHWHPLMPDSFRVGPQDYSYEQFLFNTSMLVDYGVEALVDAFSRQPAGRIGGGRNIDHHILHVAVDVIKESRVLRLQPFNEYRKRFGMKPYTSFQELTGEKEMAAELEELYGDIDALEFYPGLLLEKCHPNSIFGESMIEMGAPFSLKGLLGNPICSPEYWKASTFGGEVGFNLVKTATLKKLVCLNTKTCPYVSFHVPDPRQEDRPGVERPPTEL", "test": "COX Activity Assay (Cayman), colorimetric, COX-1", "type": "biochemical", "conditions": "at a level of 300 μM", "protocol": "as §1, §2"}}, "data": [{"smiles": "CNC(=O)c1cnc(OC)nc1-c1cc(C(C)(C)C)c(O)c(C(C)(C)C)c1", "note": "[C, 4-(3,5-di-tert-butyl-4-hydroxy-phenyl)-2-methoxy-pyrimidine-5-carboxylic acid methylamide]", "values": [{"measurement": "Body weight change (g)", "setting": "[1]", "value": "28 ± 2 (13) g"}, {"measurement": "Left paw volume (mL)", "setting": "[1]", "value": "−0.65 ± 0.02 (0.09) mL"}, {"measurement": "Right paw volume (mL)", "setting": "[1]", "value": "−0.61 ± 0.01 (0.08) mL"}]}, {"smiles": "CNC(=O)c1cnc(C)nc1-c1cc(C(C)(C)C)c(O)c(C(C)(C)C)c1", "note": "[Compound A, 4-(3,5-di-tert-butyl-4-hydroxy-phenyl)-2-methyl-pyrimidine-5-carboxylic acid methylamide]", "values": [{"measurement": "LOX5 inhibition", "setting": "[2]; 30 μM", "value": 46, "unit": "%"}, {"measurement": "LOX5 inhibition", "setting": "[2]; 100 μM", "value": 69, "unit": "%"}, {"measurement": "LOX5 inhibition", "setting": "[2]; 300 μM", "value": 89, "unit": "%"}, {"measurement": "Body weight change (g)", "setting": "[1]", "value": "25 ± 3 (13) g"}, {"measurement": "Left paw volume (mL)", "setting": "[1]", "value": "−0.88 ± 0.12 (0.09) mL"}, {"measurement": "Right paw volume (mL)", "setting": "[1]", "value": "−0.99 ± 0.15 (0.08) mL"}, {"measurement": "IC50", "setting": "[3]", "value": 60, "unit": "µM"}, {"measurement": "effect on COX1", "setting": "[4]", "value": "no effect"}]}]}
